# Experimental data from patent US20120035180A1, “PHARMACEUTICAL COMPOSITION FOR TREATING CANCER COMPRISING CHLORIN E6-FOLIC ACID CONJUGATE COMPOUND AND CHITOSAN” (priority 2009, published 2012).
# How the values were obtained:
# sarcoma M-1 [1] = test: Growth dynamics and growth inhibition of sarcoma M-1 after PDT; type: in vivo, rats
# Procedure: The power density was 0.51 W/cm^2, the output power was 0.4 W, and the spot light diameter was 1 cm. […] Monitoring over radiating power was conducted by a universal power meter included in the laser device “ ? 680-2000”.
# [2] = Photophysical parameters (triplet state, intercombinative conversion); type: physicochemical
# Procedure: Values of ? and ? were determined after substantially transferring of all molecules of the studied substance in excited triplet state. In such conditions, ΔD=C Δε^Tl, wherein C indicates the molar concentration of the substance in solution, and l indicates the length of the optical way. As the standard to estimate γ, Pd(II)-octa ethyl porphyrin (Pd(II)-OEP) was selected, for which the γ value in benzol was considered as equal to one.
# sarcoma M-1 [3] = test: Necrotic area in sarcoma M-1 after PDT; type: in vivo, rats; conditions: 10.0 mg/kg, 1 hr exposure after application
# Procedure: After fixation, transverse sections of the tumor nodule in its highest diameter were made, and pictures were taken by a camera connected to a computer.
# For quantitative assessment of necroses formed after PDT, computer analysis of color tints of histo-topographic tumor slides was performed using a special program.
# The program included an algorithm of blue color identification (Evans blue), which stained viable areas of the tumor. Tumor areas killed from direct cytotoxic effect or due to structural-functional disorders of microcirculation were not stained in blue. The ratio of all non-stained dots to the total amount of dots in the fence of the tumor slide was considered to be the destruction efficiency.
# For this purpose, a laser medical instrument “ ? 680-2000” (BIOSPEC, Moscow) was used to perform the exposure at a wavelength of 670 nm in a dose of 100 J/cm^2. The power density was 0.51 W/cm^2, the output power was 0.4 W, and the spot light diameter was 1 cm. Time of exposure was […]. Monitoring over radiating power was conducted by a universal power meter included in the laser device “ ? 680-2000”.
# Hela cells [4] = test: Accumulation in Hela cells; type: cell-based; conditions: for concentration in Hela cells: 2×10^−7 M/l, 37° C.
# Procedure: The cellular accumulation and the targeted delivery of the photoactive compounds were investigated using Hela cells, which is one of the numerous tumor cell types that overexpress folate receptors.
# Cells were cultivated for 3 days in medium 199, and transferred to Hank's solution/medium 199 (9/1). After 3 hours, the cell were collected by trypsin treatment from the substrate and placed in Hank's solution (10^5 κπ/ml). To cell suspensions, chlorin e6 conjugates were added at a concentration of 2×10^−7 M/l, and incubated at 37° C. After 1, 5, 10, 15, and 24 hours, the samples were centrifuged, the pellet was washed with the cooled Hank's solution, and transferred to Hank's solution at a concentration being equal to that in the initial suspension.
# Hela cells [5] = test: Phototoxicity, 24 h incubation, 1.5-15 joule/cm^2; type: cell-based; conditions: 670-690 nm
# Procedure: In other experiment, the cells were incubated with photosensitizers at 37° C. for 24 hours, and irradiated by exposed on ice by a laser medical device “LD 680-2000” (wavelength of 670-690 nm) in a dose of 1.5-15 joule/cm^2.
substance,measurement,setting,value
[γ-(6-aminohexyl)folic acid]-chlorin e6 [chlorin e6 conjugate],Growth inhibition rate of sarcoma M-1 of rats in volume to the control,"sarcoma M-1 [1]; 2.5 mg/100 g + 100 J/cm^2 for 1 h, day 7",47.5
same,Growth inhibition rate of sarcoma M-1 of rats in volume to the control,"sarcoma M-1 [1]; 2.5 mg/100 g + 100 J/cm^2 for 1 h, day 10",79.4
same,Growth inhibition rate of sarcoma M-1 of rats in volume to the control,"sarcoma M-1 [1]; 2.5 mg/100 g + 100 J/cm^2 for 1 h, day 12",87.6
same,Growth inhibition rate of sarcoma M-1 of rats in volume to the control,"sarcoma M-1 [1]; 2.5 mg/100 g + 100 J/cm^2 for 1 h, day 14",89.8
same,Growth inhibition rate of sarcoma M-1 of rats in volume to the control,"sarcoma M-1 [1]; 2.5 mg/100 g + 100 J/cm^2 for 1 h, day 17",94.8
same,Growth inhibition rate of sarcoma M-1 of rats in volume to the control,"sarcoma M-1 [1]; 2.5 mg/100 g + 100 J/cm^2 for 1 h, day 19",94.1
same,Growth inhibition rate of sarcoma M-1 of rats in volume to the control,"sarcoma M-1 [1]; 2.5 mg/100 g + 100 J/cm^2 for 1 h, day 21",94.2
same,Growth inhibition rate of sarcoma M-1 of rats in volume to the control,"sarcoma M-1 [1]; 2.5 mg/100 g + 100 J/cm^2 for 1 h, day 24",93.6
same,Growth dynamics of sarcoma M-1 (volume),"sarcoma M-1 [1]; 2.5 mg/kg + 100 J/cm^2 for 1 h, day 7 after tumor transplant",0.25 ± 0.03 cm^3
same,Growth dynamics of sarcoma M-1 (volume),"sarcoma M-1 [1]; 2.5 mg/kg + 100 J/cm^2 for 1 h, day 10 after tumor transplant",0.28 ± 0.03 cm^3
same,Growth dynamics of sarcoma M-1 (volume),"sarcoma M-1 [1]; 2.5 mg/kg + 100 J/cm^2 for 1 h, day 12 after tumor transplant",0.34 ± 0.06 cm^3
same,Growth dynamics of sarcoma M-1 (volume),"sarcoma M-1 [1]; 2.5 mg/kg + 100 J/cm^2 for 1 h, day 14 after tumor transplant",0.41 ± 0.09 cm^3
same,Growth dynamics of sarcoma M-1 (volume),"sarcoma M-1 [1]; 2.5 mg/kg + 100 J/cm^2 for 1 h, day 17 after tumor transplant",0.46 ± 0.11 cm^3
same,Growth dynamics of sarcoma M-1 (volume),"sarcoma M-1 [1]; 2.5 mg/kg + 100 J/cm^2 for 1 h, day 19 after tumor transplant",0.69 ± 0.27 cm^3
same,Growth dynamics of sarcoma M-1 (volume),"sarcoma M-1 [1]; 2.5 mg/kg + 100 J/cm^2 for 1 h, day 21 after tumor transplant",0.96 ± 0.38 cm^3
same,Growth dynamics of sarcoma M-1 (volume),"sarcoma M-1 [1]; 2.5 mg/kg + 100 J/cm^2 for 1 h, day 24 after tumor transplant",1.19 ± 0.48 cm^3
same,Growth inhibition rate of sarcoma M-1 of rats in volume to the control,"sarcoma M-1 [1]; 5 mg/100 g + 100 J/cm^2 for 1 h, day 7",36.9
same,Growth inhibition rate of sarcoma M-1 of rats in volume to the control,"sarcoma M-1 [1]; 5 mg/100 g + 100 J/cm^2 for 1 h, day 10",77.9
same,Growth inhibition rate of sarcoma M-1 of rats in volume to the control,"sarcoma M-1 [1]; 5 mg/100 g + 100 J/cm^2 for 1 h, day 12",89.1
same,Growth inhibition rate of sarcoma M-1 of rats in volume to the control,"sarcoma M-1 [1]; 5 mg/100 g + 100 J/cm^2 for 1 h, day 14",92.6
same,Growth inhibition rate of sarcoma M-1 of rats in volume to the control,"sarcoma M-1 [1]; 5 mg/100 g + 100 J/cm^2 for 1 h, day 17",95.8
same,Growth inhibition rate of sarcoma M-1 of rats in volume to the control,"sarcoma M-1 [1]; 5 mg/100 g + 100 J/cm^2 for 1 h, day 19",95.9
same,Growth inhibition rate of sarcoma M-1 of rats in volume to the control,"sarcoma M-1 [1]; 5 mg/100 g + 100 J/cm^2 for 1 h, day 21",96.9
same,Growth inhibition rate of sarcoma M-1 of rats in volume to the control,"sarcoma M-1 [1]; 5 mg/100 g + 100 J/cm^2 for 1 h, day 24",97.1
same,Growth dynamics of sarcoma M-1 (volume),"sarcoma M-1 [1]; 5 mg/kg + 100 J/cm^2 for 1 h, day 7 after tumor transplant",0.29 ± 0.02 cm^3
same,Growth dynamics of sarcoma M-1 (volume),"sarcoma M-1 [1]; 5 mg/kg + 100 J/cm^2 for 1 h, day 10 after tumor transplant",0.300 ± .03 cm^3
same,Growth dynamics of sarcoma M-1 (volume),"sarcoma M-1 [1]; 5 mg/kg + 100 J/cm^2 for 1 h, day 12 after tumor transplant",0.30 ± 0.03 cm^3
same,Growth dynamics of sarcoma M-1 (volume),"sarcoma M-1 [1]; 5 mg/kg + 100 J/cm^2 for 1 h, day 14 after tumor transplant",0.30 ± 0.03 cm^3
same,Growth dynamics of sarcoma M-1 (volume),"sarcoma M-1 [1]; 5 mg/kg + 100 J/cm^2 for 1 h, day 17 after tumor transplant",0.37 ± 0.05 cm^3
same,Growth dynamics of sarcoma M-1 (volume),"sarcoma M-1 [1]; 5 mg/kg + 100 J/cm^2 for 1 h, day 19 after tumor transplant",0.47 ± 0.11 cm^3
same,Growth dynamics of sarcoma M-1 (volume),"sarcoma M-1 [1]; 5 mg/kg + 100 J/cm^2 for 1 h, day 21 after tumor transplant",0.50 ± 0.14 cm^3
same,Growth dynamics of sarcoma M-1 (volume),"sarcoma M-1 [1]; 5 mg/kg + 100 J/cm^2 for 1 h, day 24 after tumor transplant",0.54 ± 0.17 cm^3
same,Growth inhibition rate of sarcoma M-1 of rats in volume to the control,"sarcoma M-1 [1]; 10 mg/100 g + 100 J/cm^2 for 1 h, day 7",56.5
same,Growth inhibition rate of sarcoma M-1 of rats in volume to the control,"sarcoma M-1 [1]; 10 mg/100 g + 100 J/cm^2 for 1 h, day 10",86.0
same,Growth inhibition rate of sarcoma M-1 of rats in volume to the control,"sarcoma M-1 [1]; 10 mg/100 g + 100 J/cm^2 for 1 h, day 12",93.8
same,Growth inhibition rate of sarcoma M-1 of rats in volume to the control,"sarcoma M-1 [1]; 10 mg/100 g + 100 J/cm^2 for 1 h, day 14",95.8
same,Growth inhibition rate of sarcoma M-1 of rats in volume to the control,"sarcoma M-1 [1]; 10 mg/100 g + 100 J/cm^2 for 1 h, day 17",98.1
same,Growth inhibition rate of sarcoma M-1 of rats in volume to the control,"sarcoma M-1 [1]; 10 mg/100 g + 100 J/cm^2 for 1 h, day 19",95.2
same,Growth inhibition rate of sarcoma M-1 of rats in volume to the control,"sarcoma M-1 [1]; 10 mg/100 g + 100 J/cm^2 for 1 h, day 21",98.8
same,Growth inhibition rate of sarcoma M-1 of rats in volume to the control,"sarcoma M-1 [1]; 10 mg/100 g + 100 J/cm^2 for 1 h, day 24",98.9
same,Growth dynamics of sarcoma M-1 (volume),"sarcoma M-1 [1]; 10 mg/kg + 100 J/cm^2 for 1 h, day 7 after tumor transplant",0.20 ± 0.03 cm^3
same,Growth dynamics of sarcoma M-1 (volume),"sarcoma M-1 [1]; 10 mg/kg + 100 J/cm^2 for 1 h, day 10 after tumor transplant",0.19 ± 0.04 cm^3
same,Growth dynamics of sarcoma M-1 (volume),"sarcoma M-1 [1]; 10 mg/kg + 100 J/cm^2 for 1 h, day 12 after tumor transplant",0.17 ± 0.03 cm^3
same,Growth dynamics of sarcoma M-1 (volume),"sarcoma M-1 [1]; 10 mg/kg + 100 J/cm^2 for 1 h, day 14 after tumor transplant",0.17 ± 0.03 cm^3
same,Growth dynamics of sarcoma M-1 (volume),"sarcoma M-1 [1]; 10 mg/kg + 100 J/cm^2 for 1 h, day 17 after tumor transplant",0.17 ± 0.03 cm^3
same,Growth dynamics of sarcoma M-1 (volume),"sarcoma M-1 [1]; 10 mg/kg + 100 J/cm^2 for 1 h, day 19 after tumor transplant",0.17 ± 0.03 cm^3
same,Growth dynamics of sarcoma M-1 (volume),"sarcoma M-1 [1]; 10 mg/kg + 100 J/cm^2 for 1 h, day 21 after tumor transplant",0.20 ± 0.03 cm^3
same,Growth dynamics of sarcoma M-1 (volume),"sarcoma M-1 [1]; 10 mg/kg + 100 J/cm^2 for 1 h, day 24 after tumor transplant",0.20 ± 0.03 cm^3
same,"τt (lifetime of excited triplet state, oxygen saturated)","[2]; H2O, pH 8.1",2.5 μs
same,"τt^0 (lifetime of excited triplet state, deoxygenated)","[2]; H2O, pH 8.1",170 μs
same,"τt (lifetime of excited triplet state, oxygen saturated)","[2]; HSA, H2O, pH 8.1",14.7 μs
same,"τt^0 (lifetime of excited triplet state, deoxygenated)","[2]; HSA, H2O, pH 8.1",700 μs
same,"τt (lifetime of excited triplet state, oxygen saturated)","[2]; Liposomes, H2O, pH 8.1",1.4 μs
same,"τt^0 (lifetime of excited triplet state, deoxygenated)","[2]; Liposomes, H2O, pH 8.1",70 μs
same,γ (photoresponse of intercombinative conversion),"[2]; Liposomes, H2O, pH 8.1, standard Pd(II)-OEP",078
same,"τt (lifetime of excited triplet state, oxygen saturated)",[2]; Pyridine,0.3 μs
same,"τt^0 (lifetime of excited triplet state, deoxygenated)",[2]; Pyridine,140 μs
same,"τt (lifetime of excited triplet state, oxygen saturated)",[2]; Triton X-100,2.6 μs
same,"τt^0 (lifetime of excited triplet state, deoxygenated)",[2]; Triton X-100,230 μs
same,anti-tumor effect of PDT,sarcoma M-1 [3],most prominent anti-tumor effect
same,concentration in Hela cells,Hela cells [4]; incubation time 1 hours,0.40 relative units/10^4cl.
same,concentration in Hela cells,Hela cells [4]; incubation time 5 hours,1.80 relative units/10^4cl.
same,concentration in Hela cells,Hela cells [4]; incubation time 10 hours,2.50 relative units/10^4cl.
same,concentration in Hela cells,Hela cells [4]; incubation time 15 hours,12.5 relative units/10^4cl.
same,concentration in Hela cells,Hela cells [4]; incubation time 24 hours,15.0 relative units/10^4cl.
same,kinetic of binding with cells,Hela cells [4]; Hela cells,increases linearly over 20 hours
same,phototoxicity / photosensitivity in survival test,Hela cells [5],improved the photosensitivity
